The test system of data set [1] is RAW264.7 macrophages. Kind of data set: Receptor-mediated endocytosis, transferrin-pHrodo uptake by flow cytometry. The following applies: 2 h inhibitor, then 30 min dye. It counts as cell-based. How it is done: (§1) FIG. 2. […] (a) Cryogenic transmission electron microscopy (CryoTEM) of MiNP visually confirms retention of micellar structures. (b) MiNP with ((+) MiNP) and without ((−) MiNP) loaded LatA were characterized via small angle X-ray scattering (SAXS) and fitted with a micelle model fit using SASView. […] Cells were treated with each inhibitor for 2 h followed by 30 min of incubation with pHrodo dextran prior to analysis by flow cytometry. Data are shown as a percentile scale of endocytosis inhibition. On this scale, 0% represents standard cell uptake with no inhibitor, while 100% represents complete inhibition with no uptake of dye. N=3, p<0.001. […] N=3, p<0.001. […] Macrophages were incubated with various doses of free LatA or (+) MiNP for 4 h and assessed by flow cytometry for viability via the Zombie Aqua live/dead assay. N=3, p<0.05.
(§2) To investigate macropinocytosis inhibition by MiNP and determine whether this inhibition still permits uptake via receptor-mediated endocytosis, (+) MiNP were compared to chlorpromazine, an inhibitor of receptor-mediated endocytosis. These distinct mechanisms of endocytosis were evaluated using dextran conjugated pHrodo dye and transferrin conjugated pHrodo dye to respectively quantify effects of (+) MiNP and chlorpromazine on macropinocytosis (dextran) and receptor-mediated endocytosis (transferrin). […]
On the technique in general: In flow cytometry, cells or beads pass a laser one at a time.

For data set [2], the system named is RAW264.7 macrophages. Kind of data set: Macropinocytosis inhibition, dextran-pHrodo uptake by flow cytometry. The class given is cell-based. The following applies: 2 h inhibitor, then 30 min dye. As for the experimental part: as §1, §2
Data set [3] has as its system RAW264.7 macrophages. Put plainly: In vitro macrophage cytotoxicity, Zombie Aqua live/dead assay. The following applies: free drug. The class given is cell-based. As for the experimental part: as §1, §2
Data set [4] relates to B16F10 melanoma cells. Kind of data set: LatA inhibition of E-MC and E-MC(FA) uptake. The following applies: 0.5 μM LatA 2 h, then 30 min micelles. It counts as cell-based, mouse. How it is done: FIG. 10. […] B16F10 melanoma cells were treated with 0.5 μM LatA for 2 h followed by 30 min of incubation with either non-targeted E-MC or folate receptor targeted E-MC(FA) prior to analysis by flow cytometry. Data are shown as percentage inhibition of endocytosis normalized to untreated […]. N=3, p<0.001.

With `CN(C)CCCN1c2ccccc2Sc2ccc(Cl)cc21` [free chlorpromazine, chlorpromazine], the “inhibition of transferrin-pHrodo uptake (receptor-mediated endocytosis)” value is given as “significantly inhibited endocytosis” in data set [1] and “significantly inhibited” in data set [1] (listed as chlorpromazine).

On to `C/C1=C/C(=O)O[C@@H]2C[C@@H](CC[C@H](C)/C=C\C=C\CC1)O[C@@](O)([C@@H]1CSC(=O)N1)C2` [free LatA, latrunculin A], for which the figures for the “inhibition of dextran-pHrodo uptake (macropinocytosis)” value in data set [2] and in data set [2] (listed as Free LatA) were “much stronger inhibition of uptake than free chlorpromazine” and “significantly inhibited macropinocytosis”, respectively. Moreover, the “doses with significant toxicity to macrophages” value in data set [3] is at least 0.5 µM. Further, the “inhibition of endocytosis of E-MC vs E-MC(FA)” value in data set [4] is “inhibits uptake of non-targeted E-MC more than targeted E-MC(FA)”.

The values are drawn from patent US20220047719A1, “ENHANCING SUBCUTANEOUS INJECTION AND TARGET TISSUE ACCUMULATION OF NANOPARTICLES VIA CO-ADMINISTRATION WITH MACROPINOCYTOSIS INHIBITORY NANOPARTICLES (MINP)” (Northwestern University, priority 2020, published 2022).
